The results in this text go back to article PMC3743170 (Molecular Informatics, 2013).

One data set deals with PI3Kα (Homo sapiens, UniProt P42336). Nature of the data set: PI3Kα activity determination. The format is biochemical. To be noted: 10-dose IC50 determination (n=3), 10 µM ATP.
A short description of data set [1]: Dynamic light scattering aggregation. The format is physicochemical. To be noted: aqueous solution with 1 % DMSO.
For a further data set, the target named is T1, human M1 receptor (Homo sapiens, UniProt P11229).
T1 sequence (P11229 1-460): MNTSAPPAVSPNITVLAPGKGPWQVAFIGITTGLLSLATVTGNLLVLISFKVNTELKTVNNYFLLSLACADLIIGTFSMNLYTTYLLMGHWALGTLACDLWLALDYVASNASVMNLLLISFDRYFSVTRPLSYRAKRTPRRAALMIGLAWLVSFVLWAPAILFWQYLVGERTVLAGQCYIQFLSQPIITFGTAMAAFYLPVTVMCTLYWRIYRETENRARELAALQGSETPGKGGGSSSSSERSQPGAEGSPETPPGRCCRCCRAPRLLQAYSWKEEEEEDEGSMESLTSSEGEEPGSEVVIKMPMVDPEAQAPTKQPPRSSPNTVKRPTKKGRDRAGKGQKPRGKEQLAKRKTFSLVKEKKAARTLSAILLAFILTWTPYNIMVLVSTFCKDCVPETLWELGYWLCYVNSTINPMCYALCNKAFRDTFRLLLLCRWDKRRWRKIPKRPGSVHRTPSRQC
Nature of the data set: Cell-based functional M1 agonist assay.

Chain of PI3Kα (P42336 whole entry): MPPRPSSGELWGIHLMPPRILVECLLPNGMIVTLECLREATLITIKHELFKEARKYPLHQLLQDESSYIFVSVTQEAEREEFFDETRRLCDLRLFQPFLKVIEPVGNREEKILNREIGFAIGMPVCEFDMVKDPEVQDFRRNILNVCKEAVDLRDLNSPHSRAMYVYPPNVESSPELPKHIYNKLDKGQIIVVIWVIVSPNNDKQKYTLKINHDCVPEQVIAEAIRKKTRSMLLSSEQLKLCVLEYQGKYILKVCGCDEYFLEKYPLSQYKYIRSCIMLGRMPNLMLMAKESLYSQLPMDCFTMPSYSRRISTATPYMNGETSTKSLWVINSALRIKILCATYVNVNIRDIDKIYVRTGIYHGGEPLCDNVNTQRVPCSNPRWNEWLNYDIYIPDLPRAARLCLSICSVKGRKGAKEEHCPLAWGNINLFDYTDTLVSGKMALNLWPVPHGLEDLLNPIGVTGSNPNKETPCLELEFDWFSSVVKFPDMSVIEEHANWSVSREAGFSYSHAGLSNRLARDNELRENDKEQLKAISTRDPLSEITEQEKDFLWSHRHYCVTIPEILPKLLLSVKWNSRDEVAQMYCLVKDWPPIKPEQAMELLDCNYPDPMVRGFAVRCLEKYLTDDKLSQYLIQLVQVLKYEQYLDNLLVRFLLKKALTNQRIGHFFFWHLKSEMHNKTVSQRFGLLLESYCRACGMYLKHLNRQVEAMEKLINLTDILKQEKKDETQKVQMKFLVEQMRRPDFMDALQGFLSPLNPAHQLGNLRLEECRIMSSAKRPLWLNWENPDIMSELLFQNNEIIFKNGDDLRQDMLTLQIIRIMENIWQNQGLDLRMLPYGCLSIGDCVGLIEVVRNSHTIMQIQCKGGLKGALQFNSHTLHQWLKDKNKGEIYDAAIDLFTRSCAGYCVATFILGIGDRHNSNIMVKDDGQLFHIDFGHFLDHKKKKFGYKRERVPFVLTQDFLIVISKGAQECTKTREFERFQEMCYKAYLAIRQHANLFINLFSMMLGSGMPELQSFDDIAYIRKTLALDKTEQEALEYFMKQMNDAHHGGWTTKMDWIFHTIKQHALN
Chain of PI3Kα (P27986 whole entry partner): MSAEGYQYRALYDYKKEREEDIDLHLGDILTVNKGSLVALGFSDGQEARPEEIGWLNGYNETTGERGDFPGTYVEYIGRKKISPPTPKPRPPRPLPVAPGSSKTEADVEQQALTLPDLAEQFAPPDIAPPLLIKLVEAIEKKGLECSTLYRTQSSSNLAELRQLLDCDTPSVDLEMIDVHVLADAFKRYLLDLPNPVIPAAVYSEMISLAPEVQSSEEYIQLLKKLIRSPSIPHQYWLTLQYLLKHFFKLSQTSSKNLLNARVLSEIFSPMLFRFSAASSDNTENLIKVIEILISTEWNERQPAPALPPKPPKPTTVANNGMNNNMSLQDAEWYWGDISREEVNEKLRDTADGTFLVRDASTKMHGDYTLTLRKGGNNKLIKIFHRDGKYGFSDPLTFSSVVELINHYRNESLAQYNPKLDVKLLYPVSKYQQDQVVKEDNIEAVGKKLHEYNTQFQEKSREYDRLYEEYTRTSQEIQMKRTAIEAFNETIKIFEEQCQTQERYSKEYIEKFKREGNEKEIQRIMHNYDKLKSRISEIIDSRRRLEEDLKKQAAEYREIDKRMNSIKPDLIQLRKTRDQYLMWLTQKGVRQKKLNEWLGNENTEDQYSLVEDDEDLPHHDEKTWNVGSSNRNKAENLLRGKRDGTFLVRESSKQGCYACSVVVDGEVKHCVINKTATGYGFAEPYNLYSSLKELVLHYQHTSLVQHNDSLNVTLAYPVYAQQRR

Consider `COC(=O)CNc1c(-c2ccc(OC)cc2OC)nc2ccccn12` [Compound 1, methyl 2-((2-(2,4-dimethoxyphenyl)imidazo[1,2-a]pyridin-3-yl)amino)acetate], for which the IC50 against PI3Kα was determined as 131 µM.

In the case of `COC(=O)c1ccn2c(NCCN3CCOCC3)c(-c3cccn3C)nc2c1` [Compound 2, methyl 2-(1-methyl-1H-pyrrol-2-yl)-3-((2-morpholinoethyl)amino)imidazo[1,2-a] pyridine-7-carboxylate], the “concentrations at which aggregate particles were observable” value in data set [1] is 15.5 to 250 µM. This compound yielded an EC50 at human M1 receptor of about 5 µM. For the same compound, the “M1 agonistic activity, % of the effect caused by 100 nM acetylcholine” value at human M1 receptor (compound concentration of 10 µM) came out at 34±5%. The IC50 at PI3Kα is 230 ± 30 µM.

Broadly, the IC50 is the point on the concentration scale where inhibition reaches its midpoint. Low values mean inhibition by little substance, high ones a need for much substance. In general, EC50 refers to the concentration that produces a half-maximal response. Low readings indicate higher potency in that assay, high ones lower potency in that assay.
